Where no end group is shown, it is not given here.
Tested on: CB CD34+CD38− HSC
Assay: In vitro proliferation of sorted cord blood CD34+CD38− HSC with 6 growth factor stimulation, cells counted after 6 days
Format: cell-based, human
Conditions: 300 per well, Cellgro supplemented with 6 factors, after 6 d, versus 6 factors alone
Method: Human cord blood cells were sorted by FACS and plated into cell culture wells (300 cells/well) in the presence of Cellgro supplemented with 6 growth factors G-CSF, […], FL-T3 ligand, (FLT3-L), MGDF (all 100 ng/ml), IL-6 and IL-3 (both 10 ng/ml). In addition, α9β1 antibody (Chemicon), thrombin-cleaved bovine Opn (R & D Systems, Minneapolis, Minn., USA), or Opn inhibiting peptide [SVVYGLR-NH2] (Auspep) (SEQ ID NO:1) were added. All cells were cultured at 37° C. in 5% O2, 10% CO2 and 85% N2. Cells were grown for 6 days prior to counting.
Thrombin-cleaved Opn was prepared by incubating 24 μg bovine Opn in 20 mM Tris-HCl (pH 7.6), 80 mM NaCl, 2 mM CaCl2 and 0.1 units of thrombin (CSL, Parkville, Australia), for 10 min at 37° C.

SVVYGLR-NH2 [osteopontin peptide] was tested, and the cell proliferation was “significant inhibition of cell proliferation”.
